Source: patent publication EP0167935A2, “Anthracycline derivatives, a process for the production thereof, a pharmaceutical composition containing the same and their use as medicaments” (priority 1984, dated 1986)
Values after ≈ are worked out from the molar mass of the structure shown. Read-outs that look alike come from different tables or passages of the source.

What was measured:
[1] = system: leukemic cells P 388; test: Inhibition of the growth of cultured leukemic cells P 388 (two-day culture); format: cell-based; conditions: Mus musculus, P388, 48 h
Excerpt: (1) Activity of inhibiting the growth of cultures leukemic cells P 3FB8

[2] = system: Leukemia L 1210; test: Anti-tumor effect for mice bearing Leukemia L 1210 (survival); format: in vivo, CDF1 mice; conditions: injected peritoneally for 10 days; for Percent survival (%): L 1210 1 x 10^5 cells/mouse i.p., 30 days observation, saline control = 100; for Toxicity remark in the percent survival cell: CDF1 mice bearing L 1210
Protocol: (2) Anti-tumor effect for mice bearing Leukemia L 1210
A group of CDF1 mice were intraperitoneally transplanted with suspensions of leukemic cells L 1210 (1 x 10^5 cells/mouse). Immediately after the transplantation, a.25 mℓ each of the test compounds was injected peritoneally into the mice for 10 days. Observation was made for 30 days, and the percent survival for each test compound was determined, with 100 representing the number of days which the control mice group administered physiological saline survived.

[3] = concentration giving 50% inhibition of growth of a two-day culture of P 388 cells vs untreated group, read-out: IC50

Row | Structure (SMILES) | IC50 [1] [ng/mL] | Percent survival (%) ([2]; Dose 0.0078 mg/kg/day) | Percent survival (%) ([2]; Dose 0.0156 mg/kg/day) | Percent survival (%) ([2]; Dose 0.0313 mg/kg/day) | Percent survival (%) ([2]; Dose 0.0625 mg/kg/day) | Percent survival (%) ([2]; Dose 0.125 mg/kg/day) | Percent survival (%) ([2]; Dose 0.25 mg/kg/day) | also measured
1 | CCC1(O)CC(OC2CC(N(C)C)C(OC3CC4OC5CC(=O)C(C)OC5OC4C(C)O3)C(C)O2)c2c(O)c3c(c(O)c2C1OC1CC(N(C)C)C(OC2CC(O)C(OC4CCC(O)C(C)O4)C(C)O2)C(C)O1)C(=O)c1cccc(O)c1C3=O (centres unmarked) [DTR-G, ditrisarubicin G] | 4.5 (≈ 3.8 nM) | 109 | 111 | 117 | 163 | 138 | 125 | Toxicity remark in the percent survival cell ([2]; Dose 0.25 mg/kg/day): Toxin
2 | CCC1(O)CC(OC2CC(N(C)C)C(OC3CC(O)C(OC4CCC(=O)C(C)O4)C(C)O3)C(C)O2)c2c(O)c3c(c(O)c2C1OC1CC(N(C)C)C(OC2CC(O)C(OC4CCC(=O)C(C)O4)C(C)O2)C(C)O1)C(=O)c1cccc(O)c1C3=O (centres unmarked) [DTR-E, ditrisarubicin E] |  | 102 | 102 | 119 | 163 | 156 | 106 | IC50 [1, 3]: 7 ng/mL (≈ 5.91 nM)
3 | CCC1(O)CC(OC2CC(N(C)C)C(OC3CC4OC5CC(=O)C(C)OC5OC4C(C)O3)C(C)O2)c2c(O)c3c(c(O)c2C1OC1CC(N(C)C)C(OC2CCC(OC4CCC(=O)C(C)O4)C(C)O2)C(C)O1)C(=O)c1cccc(O)c1C3=O (centres unmarked) [DTR-D, ditrisarubicin D] | 4 (≈ 3.43 nM) | 97 | 102 | 125 | 142 | 114 | 131 | 
4 | CCC1(O)CC(OC2CC(N(C)C)C(OC3CC(O)C(OC4CCC(O)C(C)O4)C(C)O3)C(C)O2)c2c(O)c3c(c(O)c2C1OC1CC(N(C)C)C(OC2CC4OC5CC(=O)C(C)OC5OC4C(C)O2)C(C)O1)C(=O)c1cccc(O)c1C3=O (centres unmarked) [DTR-GR, ditrisarubicin GR] | 4.2 (≈ 3.54 nM) |  |  |  |  |  |  | 
5 | CCC1(O)CC(OC2CC(N(C)C)C(OC3CC(O)C(O)C(C)O3)C(C)O2)c2c(O)c3c(c(O)c2C1OC1CC(N(C)C)C(OC2CC4OC5CC(=O)C(C)OC5OC4C(C)O2)C(C)O1)C(=O)c1cccc(O)c1C3=O (centres unmarked) [DTR-GR/de-Ro] | 20 (≈ 18.7 nM) |  |  |  |  |  |  | 
6 | CCC1(O)CC(OC2CC(N(C)C)C(OC3CCC(OC4C=CC(=O)C(C)O4)C(C)O3)C(C)O2)c2c(O)c3c(c(O)c2C1OC1CC(N(C)C)C(OC2CC4OC5CC(=O)C(C)OC5OC4C(C)O2)C(C)O1)C(=O)c1cccc(O)c1C3=O (centres unmarked) [DTR-CR, ditrisarubicin CR] | 4 (≈ 3.43 nM) |  |  |  |  |  |  | 
7 | CCC1(O)CC(OC2CC(N(C)C)C(OC3CC4OC5CC(=O)C(C)OC5OC4C(C)O3)C(C)O2)c2cc3c(c(O)c2C1OC1CC(N(C)C)C(OC2CC4OC5CC(=O)C(C)OC5OC4C(C)O2)C(C)O1)C(=O)c1c(O)ccc(O)c1C3=O (centres unmarked) [Compound 1-HSR, 1-hydroxyserirubicin] | 12 (≈ 10.2 nM) |  |  | 108 | 127 | 151 | 145 | Percent survival (%) ([2]; Dose 0.5 mg/kg/day): 139%; Toxicity remark in the percent survival cell ([2]; Dose 1 mg/kg/day): Toxin; Percent survival (%) ([2]; Dose 1 mg/kg/day): 114%
8 | CCC1(O)CC(OC2CC(N(C)C)C(OC3CC4OC5CC(=O)C(C)OC5OC4C(C)O3)C(C)O2)c2c(O)c3c(c(O)c2C1OC1CC(N(C)C)C(OC2CCC(OC4CCC(O)C(C)O4)C(C)O2)C(C)O1)C(=O)c1cccc(O)c1C3=O (centres unmarked) [DTR-F, ditrisarubicin F] | 3.8 (≈ 3.25 nM) | 101 | 120 | 127 | 133 | 152 | 133 | Toxicity remark in the percent survival cell ([2]; Dose 0.25 mg/kg/day): Toxin
9 | CCC1(O)CC(OC2CC(N(C)C)C(O)C(C)O2)c2c(O)c3c(c(O)c2C1OC1CC(N(C)C)C(OC2CC4OC5CC(=O)C(C)OC5OC4C(C)O2)C(C)O1)C(=O)c1cccc(O)c1C3=O (centres unmarked) [DTR-B/7de-dF-CB, ditrisarubicin B/7 de-dF-CB] | 21 (≈ 22.3 nM) |  |  |  |  |  |  | 
10 | CCC1(O)CC(OC2CC(N(C)C)C(OC3CC4OC5CC(=O)C(C)OC5OC4C(C)O3)C(C)O2)c2c(O)c3c(c(O)c2C1OC1CC(N(C)C)C(OC2CC(O)C(O)C(C)O2)C(C)O1)C(=O)c1cccc(O)c1C3=O (centres unmarked) [DTR-G/de-Ro] | 12 (≈ 11.2 nM) |  |  |  |  |  |  | 
11 | CCC1(O)CC(OC2CC(N(C)C)C(OC3CC4OC5CC(=O)C(C)OC5OC4C(C)O3)C(C)O2)c2c(O)c3c(c(O)c2C1OC1CC(N(C)C)C(O)C(C)O1)C(=O)c1cccc(O)c1C3=O (centres unmarked) [DTR-B/10de-dF-CB] |  |  |  |  |  |  |  | IC50 [1, 3]: 9 ng/mL (≈ 9.56 nM)
